From patent publication US20080070949A1, “POLYMORPHS OF RIMONABANT” (Cipla Limited, priority 2006, published 2008)
Values belong to the molecule of their own block, whether it stands above or below them.

Key:
Type in all cases: physicochemical
[1] = Long term stability testing; conditions: 30±2C., 65±5% relative humidity
Protocol: (§1) Long term and accelerated stability testing was carried out on crystalline rimonabant Form C.
(§2) Each sample was hermetically sealed in double HMHDPE bags and placed in fibre drum. Quantity of sample=0.8 gm per analysis. Storage conditions (long term)=30±2C., 65±5% relative humidity. Storage conditions (accelerated)=40±2° C., 75±5% relative humidity.

[2] = Accelerated stability testing; conditions: 40±2° C., 75±5% relative humidity
Protocol: as §1, §2

[3] = Comparative intrinsic dissolution study (HPLC-UV method); conditions: 900 ml of 1% Sodium Lauryl Sulphate in 0.05 M NaH2PO4 buffer pH 6.6, 50 RPM, 37° C.
Protocol: Intrinsic dissolution was studied using an HPLC-UV method with the following parameters:
Dissolution media:—900 ml of 1% Sodium Lauryl Sulphate (SLS) in buffer.
Buffer: 0.05 M NaH2PO4 pH 6.6 with NaOH
Mobile Phase:Buffer:Acetonitrile 30:70 Buffer 0.02 M NaH2PO4 0.1% Triethylamine pH 2.5 with phosphoric acid.
Column: YMC Pack Pro 18 15 cm.
Pressure applied for preparation of pellet=2.5 tonns for 5 mins.
Filter=Whatman 0.45 micron.
The results of the intrinsic dissolution study are illustrated in the graph in FIG. 5.

[4] = initially, at 1 month, at 2 months and at 3 months

- Assay (98.0%–102.0% w/w) ([1]; Initial): 99.86 % w/w
- Chromatographic purity by HPLC Individual impurity NMT 0.10% ([1]; Initial): 0.08%
- Chromatographic purity by HPLC Total impurities NMT 1.00% ([1]; Initial): 0.20%
- Water Content (By KF) NMT 5.0% w/w ([1]; Initial): 3.08 % w/w
- description of sample ([1]; initially and at 3 months): white colour powder
- polymorphic identity confirmed by XRPD, IR and DSC ([1]; initially and at 3 months): Form C
- Assay (98.0%–102.0% w/w) ([1]; period of keeping (3 months)): 99.13 % w/w
- Chromatographic purity by HPLC Individual impurity NMT 0.10% ([1]; period of keeping (3 months)): 0.08%
- Chromatographic purity by HPLC Total impurities NMT 1.00% ([1]; period of keeping (3 months)): 0.20%
- Remarks ([1]; period of keeping (3 months)): Product is stable
- Water Content (By KF) NMT 5.0% w/w ([1]; period of keeping (3 months)): 3.08 % w/w
- Assay (98.0%–102.0% w/w) ([2]; 1 Month): 101.36 % w/w
- Chromatographic purity by HPLC Individual impurity NMT 0.10% ([2]; 1 Month): 0.08%
- Chromatographic purity by HPLC Total impurities NMT 1.00% ([2]; 1 Month): 0.16%
- Water Content (By KF) NMT 5.0% w/w ([2]; 1 Month): 3.94 % w/w
- Assay (98.0%–102.0% w/w) ([2]; 2 Months): 100.67 % w/w
- Chromatographic purity by HPLC Individual impurity NMT 0.10% ([2]; 2 Months): 0.08%
- Chromatographic purity by HPLC Total impurities NMT 1.00% ([2]; 2 Months): 0.21%
- Water Content (By KF) NMT 5.0% w/w ([2]; 2 Months): 4.27 % w/w
- Assay (98.0%–102.0% w/w) ([2]; 3 Months): 99.45 % w/w
- Chromatographic purity by HPLC Individual impurity NMT 0.10% ([2]; 3 Months): 0.08%
- Chromatographic purity by HPLC Total impurities NMT 1.00% ([2]; 3 Months): 0.20%
- Water Content (By KF) NMT 5.0% w/w ([2]; 3 Months): 4.07 % w/w
- Assay (98.0%–102.0% w/w) ([2]; Initial): 99.86 % w/w
- Chromatographic purity by HPLC Individual impurity NMT 0.10% ([2]; Initial): 0.08%
- Chromatographic purity by HPLC Total impurities NMT 1.00% ([2]; Initial): 0.20%
- Water Content (By KF) NMT 5.0% w/w ([2]; Initial): 3.08 % w/w
- description of sample [2, 4]: white colour powder
- polymorphic identity confirmed by XRPD, IR and DSC [2, 4]: Form C
Compound: Cc1c(C(=O)NN2CCCCC2)nn(-c2ccc(Cl)cc2Cl)c1-c1ccc(Cl)cc1 [Form C, N-piperidino-5-(4-chlorophenyl)-1-(2,4-dichlorophenyl)-4-methyl-3-pyrazolecarboxamide]

- order of intrinsic dissolution [3]: amorphous >Form C >Form I
Compound: Cc1c(C(=O)NN2CCCCC2)nn(-c2ccc(Cl)cc2Cl)c1-c1ccc(Cl)cc1 [amorphous, N-piperidino-5-(4-chlorophenyl)-1-(2,4-dichlorophenyl)-4-methyl-3-pyrazolecarboxamide]
